Blank lines part the entries; values can stand above or below the compound they belong to.
Legend:
IL-2 promoter/enhancer = test: IL-2 promoter assay (luciferase reporter in Jurkat J.1F/C6 cells); assay type: cell-based; conditions: Homo sapiens; J.1F/C6 Jurkat cell line, IL-2 promoter luciferase reporter; read-out: IC50, inhibition of luciferase activity induced by ionomycin and PMA
Text: The IL-2 promoter assay measures transcriptional activation of a luciferase reporter gene which has been placed under control of the IL-2 promoter/enhancer. All the known regulatory features of the IL2gene are contained within a 300 bp sequence immediately upstream of the open reading frame. The region −328 to +35 relative to the transcription start site of the IL-2 gene is obtained by RT-PCR of human genomic DNA and is subcloned into the promoterless luciferase reporter vector pGL2-Basic (Promega). The resulting construct, pIL2P-luc, and a vector containing a neomycin resistance gene, pcDNA/Neo (Invitrogen), are linearized and stably transfected into Jurkat cells (a human T cell line) by electroporation. […] For screening compounds, the cells are pelleted by centrifugation, washed once with PBS, resuspended in RPMI (phenol red-free) containing 5% FBS, and dispensed into 96-well, white microtiter plates (Packard) at 50,000 cells/well. The cells are pre-incubated with compounds (1 μg/ml) for 15 min prior to addition of ionomycin (1 μg/ml) and PMA (10 ng/ml) in a final volume of 100 μl. Following a 5 hr incubation at 37° C. in a humidified incubator, 100 μl of Luc-Lite lysis buffer/luciferase assay buffer (Promega) is added and luminescence measured using a Packard TopCount scintillation counter/luminometer.

Structure (SMILES): FC(F)(F)c1cc(C(F)(F)F)n(-c2ccc(Nc3ccncn3)cc2)n1 [Example 886]
- melting point: 218 to 219 °C

Structure (SMILES): FC(F)(F)c1cc(C(F)(F)F)n(-c2ccc(Nc3nc4ccccc4[nH]3)cc2)n1 [Example 644]
- melting point: 220 to 222 °C

Structure (SMILES): FC(F)(F)c1cc(C(F)(F)F)n(-c2ccc(NCc3ccc(Cl)cc3)cc2)n1 [Example 548]
- melting point: 89 to 90 °C

Structure (SMILES): O=C(Nc1ccc(-n2nc(C(F)(F)F)cc2C(F)(F)F)cc1)c1ccccc1 [Example 538]
- melting point: 243 to 245 °C

Structure (SMILES): FC(F)(F)c1cc(C(F)(F)F)n(-c2ccc(Nc3nccc4ccccc34)cc2)n1 [Example 648]
- melting point: 205 to 220 °C

Structure (SMILES): CCNc1ccc(-n2nc(C(F)(F)F)cc2C(F)(F)F)cc1 [Example 613]
- melting point: 54 °C

Structure (SMILES): O=C(Nc1ccc(-n2nc(C(F)(F)F)cc2C(F)(F)F)cc1)c1cnc2ccccc2n1 [Example 712]
- melting point: 196 °C

Structure (SMILES): O=C(Nc1ccc(-n2nc(C(F)(F)F)cc2C(F)(F)F)cc1)c1cnccn1 [Example 698]
- melting point: 188 to 189 °C

Structure (SMILES): N#Cc1ccc(Nc2ccc(-n3nc(C(F)(F)F)cc3C(F)(F)F)cc2)cc1 [Example 864]
- melting point: 247 °C

Structure (SMILES): O=C(Nc1ccc(-n2nc(C(F)(F)F)cc2C(F)(F)F)cc1)c1ccnc2ccccc12 [Example 711]
- melting point: 204 to 205 °C

Structure (SMILES): FC(F)(F)c1cc(Cl)n(-c2ccc(Nc3nccc4ccccc34)cc2)n1 [Example 683]
- melting point: 244 to 254 °C

Next, values leading:

- melting point: 169 to 171 °C
Structure (SMILES): CCc1cc(C(C)C)nn1-c1ccc(NC(=O)c2cnccn2)cc1 [Example 1312]

- melting point: 176 to 178 °C
Structure (SMILES): CSc1cc(-c2ccco2)nn1-c1ccc(NC(=O)c2ccc(Cl)cc2)cc1 [Example 1077]

- melting point: 176 to 178 °C
Structure (SMILES): Cc1cc(C(F)(F)F)nn1-c1ccc(NC(=O)C2CCCC2)cc1 [Example 780]

- melting point: 87 to 88 °C
Structure (SMILES): CCc1cc(C(C)C)nn1-c1ccc(NCc2c(C)noc2C)cc1 [Example 1201]

- melting point: 179 to 182 °C
Structure (SMILES): CCc1cc(C(F)(F)F)nn1-c1ccc(NC(=O)c2c(C)ncn2C)cc1 [Example 1207]

- melting point: 123 to 124 °C
Structure (SMILES): CCc1cc(C(C)C)nn1-c1ccc(Nc2ncccc2C#N)cc1 [Example 1160]

- melting point: 107 to 109 °C
Structure (SMILES): CCCCCC(=O)Nc1ccc(-n2nc(C(F)(F)F)cc2C(F)(F)F)cc1 [Example 584]

- melting point: 173 to 175 °C
Structure (SMILES): CCc1cc(C(C)C)nn1-c1ccc(NC(=O)c2c(C)noc2C)cc1 [Example 1200]

- IC50 (IL-2 promoter/enhancer): 0.3 nM
Structure (SMILES): C=CC[C@@H]1/C=C(\C)C[C@H](C)C[C@H](OC)[C@H]2O[C@@](O)(C(=O)C(=O)N3CCCC[C@H]3C(=O)O[C@H](/C(C)=C/[C@@H]3CC[C@@H](O)[C@H](OC)C3)[C@H](C)[C@@H](O)CC1=O)[C@H](C)C[C@@H]2OC [FK506]

- melting point: 177 to 178 °C
Structure (SMILES): CN(C)Cc1cc(C(F)(F)F)n(-c2ccc(NC(=O)c3ccc(Cl)cc3)cc2)n1 [Example 1128]

- melting point: 231 to 233 °C
Structure (SMILES): O=C(Nc1ccc(-n2nc(C(F)(F)F)cc2C(F)(F)F)cc1)C1CCCNC1 (stereo not drawn) [Example 688]

- melting point: 87 to 89 °C
Structure (SMILES): CCc1cc(C(F)(F)F)nn1-c1ccc(NCc2ccc(C)s2)cc1 [Example 1248]

- melting point: 185 to 186 °C
Structure (SMILES): O=C(Nc1ccc(-n2nc(C(F)(F)F)cc2C(F)(F)F)cc1)N1CCOCC1 [Example 726]

- melting point: 93 to 95 °C
Structure (SMILES): CCc1cc(C(F)(F)F)nn1-c1ccc(NCc2sccc2C)cc1 [Example 1247]

- melting point: 175 to 176 °C
Structure (SMILES): CC(=O)Nc1ccc(-n2nc(C(F)(F)F)cc2C(F)(F)F)cc1 [Example 547]

- melting point: 110 °C
Structure (SMILES): C[S+]([O-])c1cc(-c2ccco2)nn1-c1ccc(NC(=O)c2ccc(Cl)cc2)cc1 (stereo not drawn) [Example 1101]

— patent publication US6506747B1, “Substituted 1-(4-aminophenyl)pyrazoles and their use as anti-inflammatory agents” (Boehringer Ingelheim Pharmaceuticals, Inc., priority 1998, dated 2003)
